Experimental data reported in US10017463B2, “Inhibitors of deubiquitinating proteases” (Brandeis University, priority 2014, dated 2018).
Like-named read-outs stand apart in the source and are kept apart here.

What was measured:
G76VUb-GFP in COS1 cells = assay: UbG76V-GFP proteasome assay in COS1 cells; type: cell-based; settings: COS1, 8 h
Description: COS1 cells at approx. 75% confluence in a 48 well plate were transiently transfected with a plasmid encoding G76VUb-GFP using Mirus 2020 reagent. After this time media with either compound in DMSO or 1% DMSO was added to the cells and the cells were incubated for 8 h. After this time, cells were trypsinized, diluted with 1% FBS in PBS (FACS buffer) then centrifuged at 700 g. After this time cells on ice were treated with FACS buffer containing propidium iodide (0.05 mg/mL). The GFP (indicating proteasome activity) and red fluorescence (dye exclusion showing acute toxicity) were subsequently measured by FACS.

cathepsin C = biological target: T1, cathepsin C (Mus musculus, UniProt P97821); assay: Cathepsin C inhibition (Gly-Phe-AMC); type: biochemical; settings: for EC50 for cathepsin C inhibition: 30 min preincubation, substrate 150 μM
T1 construct: Mouse full length cathepsin C was from RnD systems; purchased RnD systems (Minneapolis, Minn.)
Description: Panel A is a plot showing the KM calculation for cathepsin C and substrate, Gly-Phe-AMC. Panel B is a plot showing Cathepsin C was incubated with the stated compound for 30 min prior to addition of substrate and residual activity was measured. Panel C is a plot showing the EC50 values calculated from Panel B.
Cathepsin C is an enzyme important in inflammation. […] The assay was undertaken by incubating the enzyme in the presence of compound for 30 min, then adding substrate (150 μM; kM=75 μM) and measuring residual activity. […] TCM41, TCM42, TCM58, TCM43, and TCM97 (FIG. 12). […] Furthermore, substitution in the 3-position of the aniline function appeared to be more favored than 4-substitution (TCM97 vs TCM41). However substitution on the phenyl ester function was much less important for inhibition, with chloro, fluoro and proton all giving similar inhibition potencies.

USP9x = biological target: T2, USP9x (Homo sapiens, UniProt Q93008); assay: HA-Ubiquitin-Vinylsulfone activity profiling in K562 lysates; type: biochemical
T2 construct: Lysate labeling assay on untransfected cells; endogenous in cells; host or cells: K562
Description: Panel B is an image of an immunoblot showing the titration of TCM23 and TCM28 in K562 lysates. Panel C is a plot showing the quantitation of band corresponding to USP9x in panel B. Panel D is an image of an immunoblot showing the titration of WP1130 in K562 lysates. Panel E is a plot showing the quantification of the efficacy of ITCs for the inhibition of USP9x in K562 lysates (see also Table 2).
[…] After this time HA-Ub-VS (1.5 μM) was added and incubated for 15 min. After this time reaction mixture (15 μL) was removed and quenched in 2× (final concentration) reducing Laemeli buffer. The reaction mixtures were heated to 37° C. for 10 min prior to analysis by western blot for HA.

MCL-1 = MCL-1 immunoblot in BaF3/p210 cells; type: cell-based, murine; settings: 4 h
Description: (§1) Panel A is the chemical structure of TU71. Panel B is an image of an immunoblot showing a K562 cell was treated with TU71 for 15 min at which time HAUb-VS was added. After an additional 15 min, aliquots were quenched in reducing loading buffer and analyzed by SDS-PAGE and HA blot. […] BaF3/p21 0 cells were treated with TU71 for 2.5 h (Panel C) or 4 h (Panel D). Cells were harvested, lysed and incubated (0.7 mg/mL protein) with 250 nM Cy5-UbVME for 5 min at 37° C. […] Panel E is an image of an immunoblot showing BaF3/p210 cells were incubated with TU71 for 4 h. The cells were harvested, lysed, analyzed by SDS-PAGE and immunoblotted as indicated. “cPARP” indicates the caspase cleavage of product of PARP and is indicative of apoptosis. Panel F is a bar graph showing data representative of mean±range of two independent experiments, one performed in duplicate of the blot depicted in Panel E.

[1] = tested on: DUBs other than USP9x, most notably UCHL5; assay: HA-Ubiquitin-Vinylsulfone activity profiling, other DUBs; type: biochemical
Description: Lysate labeling assay on untransfected cells (1.5 mg/mL lysate lysed using a Dounce homogenizer, 10 strokes, in 75 mM potassium phosphate pH 7.6, 150 mM NaCl, 0.75 mM BME) was run with the stated concentration of inhibitor (or 1% DMSO control) for 30 min. After this time HA-Ub-VS (1.5 μM) was added and incubated for 15 min. After this time reaction mixture (15 μL) was removed and quenched in 2× (final concentration) reducing Laemeli buffer. The reaction mixtures were heated to 37° C. for 10 min prior to analysis by western blot for HA. […] EC50s calculated by this method were in agreement with those found in the HA-blot.

BaF3/p210 cells [2] = assay: Apoptosis (cPARP) in BaF3/p210 cells; type: cell-based, murine; settings: 4 h
Description: as §1

BaF3/p210 cells [3] = assay: Proliferation assay (Alamar Blue), BaF3/p210; type: cell-based, murine
Source text: This cell line consists of engineered murine leukemia cells that ectopically express Bcr-Abl. Parent BaF3 cells require exogenous interleukin 3 (IL3) because IL3 stimulates expression of MCL1, which is required for survival. However, BaF3/p210 cells require no exogenous interleukins but need Bcr-Abl for survival.

DUBs = assay: Cy5-Ub-VME activity profiling of treated BaF3/p210 cells; type: cell-based, murine; settings: TU71 for 2.5 h or 4 h
Description: FIG. 9 has two panels (A and B) depicting data showing that TUs inhibit DUBs in cells. BaF3/p210 cells were incubated with the stated concentration of compound for 4 h. After this time cells were lysed using beads, lysates were normalized, then exposed to Cy5-Ub-VME for 5 min. After quenching, lysates were resolved by SDS-PAGE, analyzed on typhoon, then stained by Coomassie. Panel A is an image of the SDS-PAGE gel visualized via Typhoon imager. Panel B is an image of the SDS PAGE gel stained with Coomassie.
as §1
The increased promiscuity of the inhibitors when the experiment is carried out in cells likely stems from the increased assay time (4 h vs 20 min) coupled with the slow on rates of the inhibitors and their targets.

B16-F10 = assay: Proliferation assay, B16-F10; settings: read-out: EC50 B16-F10; WP1130, time not stated
MCF7 = assay: Proliferation assay, MCF7; settings: read-out: EC50 MCF7
Description: (§2) Proliferation assays for adherent cells were conducted by plating cells at 5%-10% confluence in 96 well plates together with compound or 0.1% DMSO. Cells were allowed to grow for 48 h and then Alamar Blue® was added and number of cells was measured by fluorescence on a microplate reader.

HeLa = assay: Proliferation assay, HeLa; settings: read-out: EC50 HeLa
Description: as §2

3T3 = assay: Proliferation assay, 3T3; settings: read-out: EC50 3T3; WP1130, time not stated
[4] = HA-Ub-VS profiling, values in text, read-out: EC50 for USP9x
[5] = inhibition of USP9x in K562 lysates, data from FIG. 1, read-out: EC50

T2 sequence (Q93008 whole entry): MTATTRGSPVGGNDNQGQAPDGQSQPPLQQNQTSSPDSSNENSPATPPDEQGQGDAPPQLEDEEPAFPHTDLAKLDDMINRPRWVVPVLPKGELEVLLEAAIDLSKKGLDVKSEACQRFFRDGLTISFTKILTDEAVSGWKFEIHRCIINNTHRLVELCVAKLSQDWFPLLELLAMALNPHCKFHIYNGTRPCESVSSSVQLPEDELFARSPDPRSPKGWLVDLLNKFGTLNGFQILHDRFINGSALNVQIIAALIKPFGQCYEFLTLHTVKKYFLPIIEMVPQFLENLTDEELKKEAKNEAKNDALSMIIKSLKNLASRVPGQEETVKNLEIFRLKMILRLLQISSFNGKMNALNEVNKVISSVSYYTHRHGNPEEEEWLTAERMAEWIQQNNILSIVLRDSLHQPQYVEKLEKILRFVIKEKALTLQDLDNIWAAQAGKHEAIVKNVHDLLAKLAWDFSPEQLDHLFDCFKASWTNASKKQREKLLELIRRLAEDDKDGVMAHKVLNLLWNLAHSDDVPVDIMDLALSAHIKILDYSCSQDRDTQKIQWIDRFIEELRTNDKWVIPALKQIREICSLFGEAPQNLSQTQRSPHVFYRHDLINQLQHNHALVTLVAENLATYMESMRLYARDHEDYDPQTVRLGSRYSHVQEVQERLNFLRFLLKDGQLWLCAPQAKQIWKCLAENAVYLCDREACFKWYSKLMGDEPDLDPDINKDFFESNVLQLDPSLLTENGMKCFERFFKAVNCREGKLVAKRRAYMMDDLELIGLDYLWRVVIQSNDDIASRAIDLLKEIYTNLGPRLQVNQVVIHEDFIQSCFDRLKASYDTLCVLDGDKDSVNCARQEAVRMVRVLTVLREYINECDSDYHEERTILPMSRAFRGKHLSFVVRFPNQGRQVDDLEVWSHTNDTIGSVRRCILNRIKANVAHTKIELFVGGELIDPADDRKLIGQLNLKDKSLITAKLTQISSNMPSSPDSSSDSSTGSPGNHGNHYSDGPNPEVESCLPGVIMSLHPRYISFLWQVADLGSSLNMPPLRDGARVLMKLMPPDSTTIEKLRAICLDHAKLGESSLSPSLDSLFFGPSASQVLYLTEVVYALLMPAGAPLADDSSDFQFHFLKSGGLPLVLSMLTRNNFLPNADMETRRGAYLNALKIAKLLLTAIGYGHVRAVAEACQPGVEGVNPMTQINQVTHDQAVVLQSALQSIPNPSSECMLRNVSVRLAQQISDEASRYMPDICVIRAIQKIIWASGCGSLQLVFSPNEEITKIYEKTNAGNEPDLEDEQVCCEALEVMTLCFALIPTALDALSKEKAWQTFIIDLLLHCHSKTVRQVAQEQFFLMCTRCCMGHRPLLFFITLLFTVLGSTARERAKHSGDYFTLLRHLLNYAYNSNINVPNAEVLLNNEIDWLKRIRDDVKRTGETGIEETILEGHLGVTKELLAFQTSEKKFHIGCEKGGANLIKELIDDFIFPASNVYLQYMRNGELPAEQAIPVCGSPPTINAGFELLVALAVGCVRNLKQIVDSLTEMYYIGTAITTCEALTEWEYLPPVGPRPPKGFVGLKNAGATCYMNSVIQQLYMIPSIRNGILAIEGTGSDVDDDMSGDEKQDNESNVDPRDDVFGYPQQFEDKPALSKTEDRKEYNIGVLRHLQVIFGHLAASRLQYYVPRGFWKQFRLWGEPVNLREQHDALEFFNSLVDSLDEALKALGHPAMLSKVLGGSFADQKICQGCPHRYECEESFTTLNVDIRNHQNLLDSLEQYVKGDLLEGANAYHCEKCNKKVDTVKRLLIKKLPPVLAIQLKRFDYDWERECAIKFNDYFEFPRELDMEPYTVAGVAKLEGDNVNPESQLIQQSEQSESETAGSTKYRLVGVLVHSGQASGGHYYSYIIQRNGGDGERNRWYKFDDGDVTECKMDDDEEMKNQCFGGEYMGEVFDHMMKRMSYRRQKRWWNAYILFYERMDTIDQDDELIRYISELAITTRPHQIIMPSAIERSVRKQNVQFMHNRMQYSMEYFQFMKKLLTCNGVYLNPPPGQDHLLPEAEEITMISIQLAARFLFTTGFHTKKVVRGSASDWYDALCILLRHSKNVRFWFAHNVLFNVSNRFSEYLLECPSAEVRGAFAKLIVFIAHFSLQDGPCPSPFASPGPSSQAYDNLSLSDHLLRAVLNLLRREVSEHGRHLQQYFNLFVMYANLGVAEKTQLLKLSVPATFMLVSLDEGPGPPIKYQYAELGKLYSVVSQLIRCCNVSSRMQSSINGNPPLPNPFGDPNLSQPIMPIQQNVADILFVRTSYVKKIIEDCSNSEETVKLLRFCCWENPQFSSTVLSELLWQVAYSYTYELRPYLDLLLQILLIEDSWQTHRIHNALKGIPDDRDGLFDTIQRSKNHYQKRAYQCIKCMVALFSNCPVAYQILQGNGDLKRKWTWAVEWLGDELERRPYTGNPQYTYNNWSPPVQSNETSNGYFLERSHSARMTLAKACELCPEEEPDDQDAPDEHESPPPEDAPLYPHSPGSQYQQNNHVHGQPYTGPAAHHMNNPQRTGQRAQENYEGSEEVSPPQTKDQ
T1 sequence (P97821 231-393 limits assumed): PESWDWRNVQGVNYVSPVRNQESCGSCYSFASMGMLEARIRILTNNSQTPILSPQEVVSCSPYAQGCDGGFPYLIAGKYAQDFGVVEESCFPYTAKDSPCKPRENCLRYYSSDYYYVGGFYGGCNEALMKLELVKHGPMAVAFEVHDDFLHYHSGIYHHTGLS
T1 sequence (P97821 25-134 limits assumed): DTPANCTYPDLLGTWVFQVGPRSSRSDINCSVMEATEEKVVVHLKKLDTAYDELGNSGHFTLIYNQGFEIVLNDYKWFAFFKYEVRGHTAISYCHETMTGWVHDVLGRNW
T1 sequence (P97821 394-462 limits assumed): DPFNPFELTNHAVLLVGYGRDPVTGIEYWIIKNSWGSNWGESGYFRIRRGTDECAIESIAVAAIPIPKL

`CC(C)C[C@H](NC(=O)[C@H](Cc1ccccc1)NC(=O)c1cnccn1)B(O)O` [Bortezomib, reference compound] was tested, and the GFP signal (G76VUb-GFP in COS1 cells) was “two-fold increase in GFP signal”.
For `CC(C)(C)OC(=O)NCc1ccc(N(C(=S)Oc2ccc(Cl)cc2)C(=S)Oc2ccc(Cl)cc2)cc1` [TCM40], the “EC50 for cathepsin C inhibition” value (cathepsin C) was “low micromolar range”.
For `CC(C)(C)OC(=O)NCc1ccc(N(C(=S)Oc2ccccc2)C(=S)Oc2ccccc2)cc1` [TCM41], the “EC50 for cathepsin C inhibition” value (cathepsin C) was “low micromolar range”.
For `Cc1ccc(OC(=S)N(C(=S)Oc2ccc(C)cc2)c2ccc(CNC(=O)OC(C)(C)C)cc2)cc1` [TCM42], the “EC50 for cathepsin C inhibition” value (cathepsin C) was “low micromolar range”.
`CN(C)c1ccc(N(C(=S)Oc2ccccc2)C(=S)Oc2ccccc2)cc1` [TCM43] was tested, and the “relative potency as cathepsin C inhibitor” value (cathepsin C) was “most potent inhibitor” and the “EC50 for cathepsin C inhibition” value (cathepsin C) was “low micromolar range”.
With `CC(C)(C)OC(=O)NCc1ccc(N(C(=S)Oc2ccc(F)cc2)C(=S)Oc2ccc(F)cc2)cc1` [TCM58] the “EC50 for cathepsin C inhibition” value (cathepsin C) was “low micromolar range”.
In the case of `CC(C)(C)OC(=O)NCc1cccc(N(C(=S)Oc2ccccc2)C(=S)Oc2ccccc2)c1` [TCM97], the “EC50 for cathepsin C inhibition” value (cathepsin C) is reported as “low micromolar range”.
`Cc1cccc(N=C=S)c1` [TU70] was tested, and the EC50 (USP9x; [4]) was greater than 50 µM and the EC50 (USP9x; [5]) was 61 µM.
With `CC(C)(C)OC(=O)NCCc1cccc(N=C=S)c1` [TU71] the “level of MCL-1” value (MCL-1) was “decreases the level”, the “inhibition of other DUBs other than USP9x” value ([1]; at 85 μM) was “weak inhibition” and the “inhibition of other DUBs” value ([1]; below 25 μM) was “little inhibition”. The EC50 (USP9x; [4]) was 6 to 12 µM, the EC50 (USP9x; K562 treated with TU71 for 15 min, then HAUb-VS 15 min (FIG. 13), read-out: EC50 for USP9x inhibition) was 20 ± 1 µM and the EC50 (USP9x; [5]) was 9 µM. For the same compound, the apoptosis (BaF3/p210 cells [2]) was “initiates apoptosis”, the “growth inhibition of BaF3/p210 cells” value (BaF3/p210 cells [3]) was “did not show a significant growth inhibition until very high concentrations” and the “DUB inhibition in cells” value (DUBs) was “inhibits DUBs”.
`N#Cc1cc(F)cc(N=C=S)c1` [TU74] showed an EC50 (USP9x; [5]) of 22 µM.
`S=C=Nc1ccccc1` [TU76] gave an EC50 (USP9x; [4]) greater than 50 µM and an EC50 (USP9x; [5]) of 131 µM.
With `O=[N+]([O-])c1ccc(N=C=S)cc1` [TU79] the EC50 (USP9x; [5]) was 11 µM.
Compound `Fc1cccc(N=C=S)c1` [TU81] has an EC50 (USP9x; [5]) of 20 µM.
`CCC[C@H](NC(=O)/C(C#N)=C/c1cccc(Br)n1)c1ccccc1` [WP1130, reference compound] was tested, and the EC50 (B16-F10) was 3 µM, the EC50 (MCF7) was 3 µM and the EC50 (HeLa) was 3 µM. For the same compound, the “inhibition of other USPs” value ([1]; conditions as for USP9x EC50) was “also inhibited”, the EC50 (USP9x; [4]) was 3 µM and the EC50 (3T3) was 3 µM.
